From US11261211B2, “19-NOR neuroactive steroids and methods of use thereof” (Sage Therapeutics, Inc., priority 2013, dated 2022) come the findings set out here.

The target of one assay is α1β2γ2 GABAA receptor (Homo sapiens (Human), UniProt P14867+P47870). Kind of assay: Patch clamp electrophysiology of recombinant α1β2γ2 GABAA receptors in LTK cells. The assay is classed as cell-based. The note with it: for activity at 10 µM / α1β2γ2 GABA Qpatch in Ltk (Efficacy at 10 μm): 10 μM compound, Qpatch, Ltk cells, GABA EC20 2 μM; for activity at 10 µM: read-out: α1β2γ2 GABA Qpatch in Ltk (Efficacy at 10 μm). The method, boiled down: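 Whole-cell voltage clamp at −80 mV, room temperature, in LTK cells stably expressing α1β2γ2 or CHO cells transiently expressing α4β3δ, manual or QPatch. Test article (0.01–10 μM, increasing, 30 s preincubation) then 2 μM GABA (EC20) for 2 s; potentiation = peak current with compound relative to GABA alone ×100.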

The next assay concerns the target α4β3δ GABAA receptor (Homo sapiens (Human), UniProt P28472+P48169). In words: Patch clamp electrophysiology of recombinant α4β3δ GABAA receptors in CHO cells. In kind it is cell-based. The note with it: 10 μM compound, GABA EC20 2 μM; for activity at 10 µM: manual patch, read-out: α4β3δ GABA Manual Patch in CHO (Efficacy at 10 μM). The procedure:
Cellular electrophysiology is used to measure the pharmacological properties of our GABAA receptor modulators in heterologous cell systems. Each compound is tested for its ability to affect GABA mediated currents at a submaximal agonist dose (GABA EC20=2 μM). LTK cells are stably transfected with the α1β2γ2 subunits of the GABA receptor and CHO cells are transiently transfected with the α4β3δ subunits via the Lipofecatamine method. Cells were passaged at a confluence of about 50-80% and then seeded onto 35 mm sterile culture dishes containing 2 ml culture complete medium without antibiotics or antimycotics. Confluent clusters of cells are electrically coupled (Pritchett et al., 1988). Because responses in distant cells are not adequately voltage clamped and because of uncertainties about the extent of coupling (Verdoorn et al., 1990), cells were cultivated at a density that enables the recording of single cells (without visible connections to other cells).
Whole cell currents were measured with HEKA EPC-10 amplifiers using PatchMaster software or by using the high throughput QPatch platform (Sophion). Bath solution for all experiments contained (in mM): NaCl 137 mM, KCl 4 mM, CaCl2 1.8 mM, MgCl2 1 mM, HEPES 10 mM, D-Glucose 10 mM, pH (NaOH) 7.4. In some cases 0.005% cremophor was also added. Intracellular (pipette) solution contained: KCl 130 mM, MgCl2 1 mM, Mg-ATP 5 mM, HEPES 10 mM, EGTA 5 mM, pH 7.2. During experiments, cells and solutions were maintained at room temperature (19° C.-30° C.). For manual patch clamp recordings, cell culture dishes were placed on the dish holder of the microscope and continuously perfused (1 ml/min) with bath solution. After formation of a Gigaohm seal between the patch electrodes and the cell (pipette resistance range: 2.5 MΩ-6.0 MΩ; seal resistance range: >1 GΩ) the cell membrane across the pipette tip was ruptured to assure electrical access to the cell interior (whole-cell patch-configuration). For experiments using the QPatch system, cells were transferred as suspension to the QPatch system in the bath solution and automated whole cell recordings were performed.
Cells were voltage clamped at a holding potential of −80 mV. For the analysis of test articles, GABA receptors were stimulated by 2 μM GABA after sequential pre-incubation of increasing concentrations of the test article. Pre-incubation duration was 30 s and the duration of the GABA stimulus was 2 s. Test articles were dissolved in DMSO to form stock solutions (10 mM). Test articles were diluted to 0.01, 0.1, 1, and 10 μM in bath solution. All concentrations of test articles were tested on each cell. The relative percentage potentiation was defined as the peak amplitude in response to GABA EC20 in the presence of the test article divided by the peak amplitude in response to GABA EC20 alone, multiplied by 100.
(In general: The patch-clamp technique gives a direct electrical read-out from membranes.)

pEC50: −log10 of the molar value.

Regarding `C[C@@]1(O)CC[C@H]2[C@H](CC[C@@H]3[C@@H]2CC[C@]2(C)[C@@H](C(=O)Cn4cc5cc(Cl)ncc5n4)CC[C@@H]32)C1` [SA-30], the activity at 10 µM at α1β2γ2 GABAA receptor (LTK) and at α4β3δ GABAA receptor was more than 500% in each case.

By Emax is commonly meant the maximal effect, on the per cent scale that the assay sets. The term pEC50 denotes −log10 of the EC50, conventionally taken in molar units. As for `C[C@@]1(O)CC[C@H]2[C@H](CC[C@@H]3[C@@H]2CC[C@]2(C)[C@@H](C(=O)Cn4cc5cccnc5n4)CC[C@@H]32)C1` [SA-18], the “α1β2γ2 GABA Qpatch in Ltk (Efficacy at 10 μm)” value (shortened to “α1β2γ2 GABA Qpatch in Ltk”) on α1β2γ2 GABAA receptor is listed as “C (“C” indicates an efficacy value of >500%)”. Further, at α1β2γ2 GABAA receptor (LTK, potentiation of GABA EC20 (2 μM) current, read-out: GABAa alpha1 (α1β2γ2) Emax (%)), the Emax is 500 to 1000%. The pEC50 on α1β2γ2 GABAA receptor (potentiation of GABA EC20 (2 μM) current, read-out: GABAa alpha1 (α1β2γ2)EC50) was less than 5.70. In addition, the “α4β3δ GABA Manual Patch in CHO (Efficacy at 10 μM)” value (shortened to “α4β3δ GABA Manual Patch in CHO”) on α4β3δ GABAA receptor is given as “C (“C” indicates an efficacy value of >500%)”.

Turning to `C[C@@]1(O)CC[C@H]2[C@H](CC[C@@H]3[C@@H]2CC[C@]2(C)[C@@H](C(=O)Cn4nc5ccc(Cl)cc5n4)CC[C@@H]32)C1` [SA-41], the activity at 10 µM on α1β2γ2 GABAA receptor (LTK) was more than 500%; on α4β3δ GABAA receptor it was 100 to 500%.

On to `Cc1cc2cn(CC(=O)[C@H]3CC[C@H]4[C@@H]5CC[C@@H]6C[C@](C)(O)CC[C@@H]6[C@H]5CC[C@]34C)nc2cn1` [SA-24], for which the activity at 10 µM at α1β2γ2 GABAA receptor (LTK) and on α4β3δ GABAA receptor was 100 to 500% in each case.

As for `C[C@@]1(O)CC[C@H]2[C@H](CC[C@@H]3[C@@H]2CC[C@]2(C)[C@@H](C(=O)Cn4nc5ccncc5n4)CC[C@@H]32)C1` [SA-11], the values for the activity at 10 µM at α1β2γ2 GABAA receptor (LTK) and at α4β3δ GABAA receptor were more than 500% and 100 to 500%, respectively.

Regarding `C[C@@]1(O)CC[C@H]2[C@@H](CC[C@@H]3[C@@H]2CC[C@]2(C)[C@@H](C(=O)Cn4cc5ccncc5n4)CC[C@@H]32)C1` [SB-9], the “α1β2γ2 GABA Qpatch in Ltk” value on α1β2γ2 GABAA receptor was “C (“C” indicates an efficacy value of >500%)”. For the same molecule, at α4β3δ GABAA receptor, the “α4β3δ GABA Manual Patch in CHO” value is reported as “B (“B” indicates an efficacy value of >100-500%)”.

In the case of `C[C@@]1(O)CC[C@H]2[C@H](CC[C@@H]3[C@@H]2CC[C@]2(C)[C@@H](C(=O)Cn4nc5cccc(F)c5n4)CC[C@@H]32)C1` [SA-66], the activity at 10 µM on α1β2γ2 GABAA receptor (LTK) and on α4β3δ GABAA receptor was more than 500% throughout.

On to `C[C@@]1(O)CC[C@H]2[C@H](CC[C@@H]3[C@@H]2CC[C@]2(C)[C@@H](C(=O)Cn4cc5ccncc5n4)CC[C@@H]32)C1` [SA-20], for which the “α1β2γ2 GABA Qpatch in Ltk” value at α1β2γ2 GABAA receptor is reported as “C (“C” indicates an efficacy value of >500%)”. The “α4β3δ GABA Manual Patch in CHO” value at α4β3δ GABAA receptor was “C (“C” indicates an efficacy value of >500%)”.

For `C[C@@]1(O)CC[C@H]2[C@H](CC[C@@H]3[C@@H]2CC[C@]2(C)[C@@H](C(=O)Cn4cc5ncncc5n4)CC[C@@H]32)C1` [SA-32], the activity at 10 µM at α1β2γ2 GABAA receptor (LTK) and on α4β3δ GABAA receptor was more than 500% each time.

`C[C@@]1(O)CC[C@H]2[C@H](CC[C@@H]3[C@@H]2CC[C@]2(C)[C@@H](C(=O)Cn4cc5ccc(F)cc5n4)CC[C@@H]32)C1` [SA-22]: the activity at 10 µM on α1β2γ2 GABAA receptor (LTK) was more than 500%; at α4β3δ GABAA receptor it was 100 to 500%.

As for `COC[C@@]1(O)CC[C@H]2[C@H](CC[C@@H]3[C@@H]2CC[C@]2(C)[C@@H](C(=O)Cn4nc5ccncc5n4)CC[C@@H]32)C1` [SA-125], the activity at 10 µM is more than 500% on α1β2γ2 GABAA receptor (LTK) and 100 to 500% on α4β3δ GABAA receptor.

On to `C[C@@]1(O)CC[C@H]2[C@H](CC[C@@H]3[C@@H]2CC[C@]2(C)[C@@H](C(=O)Cn4nc5cccc(Cl)c5n4)CC[C@@H]32)C1` [SA-78], for which the activity at 10 µM at α1β2γ2 GABAA receptor (LTK) and at α4β3δ GABAA receptor was 100 to 500% each time.

Turning to `COC[C@@]1(O)CC[C@H]2[C@@H](CC[C@@H]3[C@@H]2CC[C@]2(C)[C@@H](C(=O)Cn4nc5ccccc5n4)CC[C@@H]32)C1` [SB-50], the activity at 10 µM at α1β2γ2 GABAA receptor (LTK) was in the range of 10 to 100%; on α4β3δ GABAA receptor, 100 to 500%.
